Results as given in ChEMBL document CHEMBL5291721, “A preclinical secondary pharmacology resource illuminates target-adverse drug reaction associations of marketed drugs” (Nat Commun, 2023).

What was measured:
[1] = target: T1, Alpha-2C adrenergic receptor (Homo sapiens, UniProt P18825); type: functional
T1 sequence (P18825 whole entry): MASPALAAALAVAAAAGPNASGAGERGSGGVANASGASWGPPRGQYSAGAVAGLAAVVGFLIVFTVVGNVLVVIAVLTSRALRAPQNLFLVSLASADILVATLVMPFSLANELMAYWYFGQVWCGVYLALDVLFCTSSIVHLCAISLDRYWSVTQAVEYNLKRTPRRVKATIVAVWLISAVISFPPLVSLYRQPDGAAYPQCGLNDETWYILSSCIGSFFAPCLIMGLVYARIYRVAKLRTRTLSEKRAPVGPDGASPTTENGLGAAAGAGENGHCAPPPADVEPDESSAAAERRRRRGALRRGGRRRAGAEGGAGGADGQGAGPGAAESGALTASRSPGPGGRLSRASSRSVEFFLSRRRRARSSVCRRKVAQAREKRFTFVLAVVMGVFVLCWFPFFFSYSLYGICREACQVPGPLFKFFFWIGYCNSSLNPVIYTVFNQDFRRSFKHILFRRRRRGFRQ

[2] = target: T2, Muscarinic acetylcholine receptor M2 (Homo sapiens, UniProt P08172); type: functional, cell-based
T2 sequence (P08172 whole entry): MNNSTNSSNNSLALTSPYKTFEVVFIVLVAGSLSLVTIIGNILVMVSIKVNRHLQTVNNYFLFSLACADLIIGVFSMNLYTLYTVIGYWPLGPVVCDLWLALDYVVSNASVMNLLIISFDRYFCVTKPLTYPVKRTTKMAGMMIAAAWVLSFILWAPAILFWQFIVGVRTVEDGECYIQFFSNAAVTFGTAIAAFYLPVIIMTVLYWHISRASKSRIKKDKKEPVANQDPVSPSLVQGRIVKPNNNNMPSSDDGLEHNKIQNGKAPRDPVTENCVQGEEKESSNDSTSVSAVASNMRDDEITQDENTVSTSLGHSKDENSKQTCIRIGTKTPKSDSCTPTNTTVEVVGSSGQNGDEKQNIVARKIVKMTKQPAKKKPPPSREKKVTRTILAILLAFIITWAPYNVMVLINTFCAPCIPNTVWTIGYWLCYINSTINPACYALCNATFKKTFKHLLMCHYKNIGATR

D(1A) dopamine receptor = D(1A) dopamine receptor (Homo sapiens, UniProt P21728); type: functional, cell-based
[3] = target: Gamma-aminobutyric acid receptor subunit alpha-1 (Rattus norvegicus, UniProt P62813)
[4] = target: T3, 5-hydroxytryptamine receptor 1A (Homo sapiens, UniProt P08908); type: functional, cell-based
T3 sequence (P08908 whole entry): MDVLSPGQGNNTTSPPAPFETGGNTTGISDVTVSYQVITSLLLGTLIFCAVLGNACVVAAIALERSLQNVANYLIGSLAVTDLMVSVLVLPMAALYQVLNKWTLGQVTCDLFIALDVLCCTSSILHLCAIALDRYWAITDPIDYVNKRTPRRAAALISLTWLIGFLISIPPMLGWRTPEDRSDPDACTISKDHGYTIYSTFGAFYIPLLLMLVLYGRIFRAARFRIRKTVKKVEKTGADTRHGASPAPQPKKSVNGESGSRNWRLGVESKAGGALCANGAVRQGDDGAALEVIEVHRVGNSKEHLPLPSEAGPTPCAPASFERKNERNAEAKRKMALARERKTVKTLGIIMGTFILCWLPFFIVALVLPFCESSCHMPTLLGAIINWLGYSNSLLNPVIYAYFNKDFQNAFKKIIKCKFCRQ

[5] = target: T4, 5-hydroxytryptamine receptor 3A (Homo sapiens, UniProt P46098); type: functional
T4 sequence (P46098 whole entry): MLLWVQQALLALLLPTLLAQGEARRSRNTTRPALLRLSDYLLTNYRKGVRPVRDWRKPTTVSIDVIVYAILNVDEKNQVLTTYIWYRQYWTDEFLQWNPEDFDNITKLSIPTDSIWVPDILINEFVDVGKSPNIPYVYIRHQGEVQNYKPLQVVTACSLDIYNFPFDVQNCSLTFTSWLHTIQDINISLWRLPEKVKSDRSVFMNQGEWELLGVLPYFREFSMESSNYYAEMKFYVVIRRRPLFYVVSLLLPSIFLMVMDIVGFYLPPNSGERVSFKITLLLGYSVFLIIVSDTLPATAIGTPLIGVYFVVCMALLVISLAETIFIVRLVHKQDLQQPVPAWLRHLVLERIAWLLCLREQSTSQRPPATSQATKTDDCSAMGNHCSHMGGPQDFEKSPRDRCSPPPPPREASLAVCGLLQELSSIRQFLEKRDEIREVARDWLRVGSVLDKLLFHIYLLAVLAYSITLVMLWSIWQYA

Glucocorticoid receptor = target: T5, Glucocorticoid receptor (Homo sapiens, UniProt P04150)
T5 sequence (P04150 whole entry): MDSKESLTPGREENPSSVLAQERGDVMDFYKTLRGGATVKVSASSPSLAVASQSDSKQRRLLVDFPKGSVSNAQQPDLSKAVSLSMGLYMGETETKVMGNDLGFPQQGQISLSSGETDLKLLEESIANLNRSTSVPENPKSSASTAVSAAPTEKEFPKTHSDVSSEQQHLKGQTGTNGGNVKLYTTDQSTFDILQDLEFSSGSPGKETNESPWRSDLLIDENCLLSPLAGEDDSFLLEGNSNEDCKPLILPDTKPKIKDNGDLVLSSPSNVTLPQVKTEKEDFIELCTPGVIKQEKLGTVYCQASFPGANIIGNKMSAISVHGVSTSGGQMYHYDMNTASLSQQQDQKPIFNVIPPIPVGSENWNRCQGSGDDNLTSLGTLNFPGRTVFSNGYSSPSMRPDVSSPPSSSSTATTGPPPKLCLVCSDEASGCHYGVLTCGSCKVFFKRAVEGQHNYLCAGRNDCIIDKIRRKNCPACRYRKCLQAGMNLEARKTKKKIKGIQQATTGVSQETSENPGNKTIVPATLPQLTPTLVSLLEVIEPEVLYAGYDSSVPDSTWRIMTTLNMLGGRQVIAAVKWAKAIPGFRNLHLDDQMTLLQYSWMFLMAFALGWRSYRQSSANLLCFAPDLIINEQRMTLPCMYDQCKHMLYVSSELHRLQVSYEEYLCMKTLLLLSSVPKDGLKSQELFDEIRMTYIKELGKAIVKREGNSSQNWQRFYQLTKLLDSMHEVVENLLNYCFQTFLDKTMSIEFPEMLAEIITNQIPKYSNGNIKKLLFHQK

[6] = target: Delta-type opioid receptor (Homo sapiens, UniProt P41143)
Histamine H3 receptor = Histamine H3 receptor (Homo sapiens, UniProt Q9Y5N1)
Also: assay procedure not described here.

Gamma-aminobutyric acid receptor subunit alpha-1, sequence (P62813 whole entry): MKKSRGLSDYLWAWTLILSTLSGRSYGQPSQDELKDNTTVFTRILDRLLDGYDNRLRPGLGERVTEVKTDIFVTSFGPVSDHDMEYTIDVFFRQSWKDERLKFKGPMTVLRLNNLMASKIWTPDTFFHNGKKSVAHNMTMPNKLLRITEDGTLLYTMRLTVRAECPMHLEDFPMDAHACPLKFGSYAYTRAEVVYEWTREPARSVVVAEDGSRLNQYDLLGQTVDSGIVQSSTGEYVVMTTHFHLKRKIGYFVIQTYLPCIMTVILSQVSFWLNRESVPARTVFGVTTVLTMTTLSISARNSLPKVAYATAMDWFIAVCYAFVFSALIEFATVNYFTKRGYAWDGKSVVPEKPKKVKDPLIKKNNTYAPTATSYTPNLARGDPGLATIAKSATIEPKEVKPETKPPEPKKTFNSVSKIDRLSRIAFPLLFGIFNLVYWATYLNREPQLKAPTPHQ
Histamine H3 receptor, sequence (Q9Y5N1 whole entry): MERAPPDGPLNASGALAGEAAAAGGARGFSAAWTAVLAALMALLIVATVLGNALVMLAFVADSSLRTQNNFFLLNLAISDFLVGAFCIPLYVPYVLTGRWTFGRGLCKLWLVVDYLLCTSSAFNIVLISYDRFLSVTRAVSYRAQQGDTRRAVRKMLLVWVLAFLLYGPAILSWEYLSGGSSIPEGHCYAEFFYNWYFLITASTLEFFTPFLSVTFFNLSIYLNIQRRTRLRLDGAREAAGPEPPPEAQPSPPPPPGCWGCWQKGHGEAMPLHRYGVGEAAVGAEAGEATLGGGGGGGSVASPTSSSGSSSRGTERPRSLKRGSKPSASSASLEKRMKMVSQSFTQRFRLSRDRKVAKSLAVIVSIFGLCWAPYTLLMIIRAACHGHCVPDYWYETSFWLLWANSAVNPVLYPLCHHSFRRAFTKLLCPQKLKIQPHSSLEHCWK
D(1A) dopamine receptor, sequence (P21728 whole entry): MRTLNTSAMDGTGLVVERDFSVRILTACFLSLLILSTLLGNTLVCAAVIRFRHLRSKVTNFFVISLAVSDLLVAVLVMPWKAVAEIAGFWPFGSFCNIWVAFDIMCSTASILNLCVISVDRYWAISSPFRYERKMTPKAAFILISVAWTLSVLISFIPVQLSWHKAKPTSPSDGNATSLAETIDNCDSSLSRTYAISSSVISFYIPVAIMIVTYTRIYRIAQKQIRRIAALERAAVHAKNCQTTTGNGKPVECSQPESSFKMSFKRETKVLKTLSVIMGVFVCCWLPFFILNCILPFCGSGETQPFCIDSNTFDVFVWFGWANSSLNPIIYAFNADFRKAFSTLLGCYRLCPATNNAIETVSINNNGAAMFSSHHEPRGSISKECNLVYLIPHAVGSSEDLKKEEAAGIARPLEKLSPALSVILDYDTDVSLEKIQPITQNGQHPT
Delta-type opioid receptor, sequence (P41143 whole entry): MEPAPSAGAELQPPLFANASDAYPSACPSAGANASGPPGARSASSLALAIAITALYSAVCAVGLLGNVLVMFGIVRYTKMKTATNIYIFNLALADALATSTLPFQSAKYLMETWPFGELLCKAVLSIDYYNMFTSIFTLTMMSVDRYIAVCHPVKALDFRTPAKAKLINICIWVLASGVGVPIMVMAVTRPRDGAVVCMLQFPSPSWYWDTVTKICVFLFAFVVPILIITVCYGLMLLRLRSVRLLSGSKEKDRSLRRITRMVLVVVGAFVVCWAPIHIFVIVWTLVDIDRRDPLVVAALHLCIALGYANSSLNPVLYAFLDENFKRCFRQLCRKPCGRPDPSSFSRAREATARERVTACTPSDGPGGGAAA

Compound	AC50 [1]	AC50 [2]	AC50 (D(1A) dopamine receptor)	AC50 [3]	AC50 [4]	AC50 [5]	AC50 (Glucocorticoid receptor)	AC50 [6]	AC50 (Histamine H3 receptor)
COc1ccc(/C=C/C(=O)Nc2ccccc2C(=O)O)cc1OC	> 30 µM	> 30 µM	> 30 µM	> 30 µM	> 30 µM	> 30 µM	> 30 µM	> 30 µM	> 30 µM
NCCCC(O)(P(=O)(O)O)P(=O)(O)O [ALENDRONIC ACID]	> 10 µM			> 10 µM	> 10 µM	> 10 µM	> 30 µM	> 10 µM	> 10 µM
Nc1ccc(C(=O)O)c(O)c1 [AMINOSALICYLIC ACID]	> 30 µM	> 30 µM	> 30 µM	> 30 µM		> 30 µM	> 30 µM	> 30 µM	> 30 µM
COc1cc(OC)c(C(=O)CCCN2CCCC2)c(OC)c1 [BUFLOMEDIL]	13 µM	> 30 µM	> 30 µM	> 30 µM	29 µM	> 30 µM	> 30 µM	> 30 µM	20 µM
CS(=O)(=O)OCCCCOS(C)(=O)=O [BUSULFAN]	> 30 µM	> 30 µM	> 30 µM		> 30 µM	> 30 µM		> 30 µM	> 30 µM
CCCCCCNC(=O)n1cc(F)c(=O)[nH]c1=O [CARMOFUR]	> 30 µM	> 30 µM	> 30 µM	> 30 µM	> 30 µM	> 30 µM	> 30 µM	> 30 µM	> 30 µM
CC(C)(C)NCC(O)c1cc(Cl)c(N)c(Cl)c1 (centres undefined) [CLENBUTEROL]	> 30 µM	> 30 µM	> 30 µM	> 30 µM	> 30 µM	> 30 µM		> 30 µM	> 30 µM
COc1cccc2c1C(=O)c1c(O)c3c(c(O)c1C2=O)C[C@@](O)(C(C)=O)C[C@@H]3O[C@H]1C[C@H](N)[C@H](O)[C@H](C)O1 [DAUNORUBICIN]	17.5 µM		> 30 µM	> 30 µM		12.8 µM	0.11 µM	16.2 µM	18 µM
Clc1ccc2c(c1)C(c1ccccc1)=NCc1nncn1-2 [ESTAZOLAM]	> 10 µM	> 10 µM	> 10 µM	> 10 µM	> 10 µM	> 30 µM	> 30 µM	> 30 µM	> 10 µM
CC(=O)OCC(CCn1cnc2cnc(N)nc21)COC(C)=O [FAMCICLOVIR]	> 10 µM	> 10 µM	> 10 µM	> 10 µM	> 10 µM	> 30 µM	> 30 µM	> 30 µM	> 10 µM
Clc1ccc(C(Cn2ccnc2)OCc2ccc(Sc3ccccc3)cc2)c(Cl)c1 (centres undefined) [FENTICONAZOLE]	> 30 µM	> 30 µM	> 30 µM			> 30 µM	> 30 µM	> 30 µM	> 30 µM
Nc1ccn([C@@H]2O[C@H](CO)[C@@H](O)C2(F)F)c(=O)n1 [GEMCITABINE]	> 10 µM	> 10 µM	> 10 µM	> 10 µM	> 10 µM	> 30 µM	> 30 µM	> 30 µM	> 10 µM
COC1=C(OC)C(=O)C(CCCCCCCCCCO)=C(C)C1=O [IDEBENONE]	> 10 µM	> 10 µM	> 30 µM	> 10 µM	> 10 µM	> 10 µM	> 30 µM	> 10 µM	> 10 µM
CC1(C)C(/C=C/C=C/C=C/C=C2\N(CCCCS(=O)(=O)O)c3ccc4ccccc4c3C2(C)C)=[N+](CCCCS(=O)(=O)[O-])c2ccc3ccccc3c21 [INDOCYANINE GREEN ACID FORM]	9.7 µM				> 30 µM	13 µM	> 30 µM	9.7 µM	
CC#CCn1c(N2CCC[C@@H](N)C2)nc2c1c(=O)n(Cc1nc(C)c3ccccc3n1)c(=O)n2C [LINAGLIPTIN]	> 10 µM			> 10 µM		> 30 µM	> 30 µM	> 10 µM	> 10 µM
C[n+]1ccccc1/C=N/O [PRALIDOXIME]	> 30 µM		> 30 µM	> 30 µM	> 30 µM	> 30 µM		> 30 µM	
CCCNC(C)C(=O)Nc1ccccc1C (centres undefined) [PRILOCAINE]	> 30 µM	> 30 µM	> 30 µM		> 30 µM	> 30 µM	> 30 µM	> 30 µM	> 30 µM
Cc1cc2nc3c(=O)[nH]c(=O)nc-3n(C[C@H](O)[C@H](O)[C@H](O)COP(=O)(O)O)c2cc1C [RIBOFLAVIN 5'-PHOSPHATE]	> 30 µM		> 30 µM	> 30 µM		> 30 µM	19 µM	> 30 µM	> 30 µM
Cc1cccc(N(C)C(=S)Oc2ccc3ccccc3c2)c1 [TOLNAFTATE]	> 30 µM	> 10 µM	> 30 µM	> 10 µM	> 10 µM	> 30 µM	> 30 µM	> 30 µM	
CN1[C@@H]2CC[C@H]1C[C@@H](OC(=O)c1c[nH]c3ccccc13)C2 [TROPISETRON]	27 µM	> 30 µM	> 30 µM	> 30 µM					> 30 µM
COc1ccc(C(CN(C)C)C2(O)CCCCC2)cc1 (centres undefined) [VENLAFAXINE]	> 10 µM	> 10 µM	> 30 µM	> 10 µM		> 30 µM		> 30 µM	6.8 µM
